Consider two compounds from patent US20260199231A1, “FLUTICASONE AND VILANTEROL FORMULATION AND INHALER” (KINDEVA DRUG DELIVERY L.P., priority 2018, published 2026).

Structures are written as SMILES.

Data set [1] in a line: Delivered dose study (start of unit life, unit spray collection apparatus, HPLC assay). The format is physicochemical. The following applies: Example 1 MDI: 0.1744% fluticasone furoate, 0.0698% vilanterol trifenatate, 99.7558% HFA-152a; coated 63 microliter valve; 28.3 L/min. The procedure:
The start of unit life delivered dose was determined using standard unit spray collection apparatus (USCA) fitted with a filter. For each determination, an MDI was attached to the USCA using a coupler and actuated a single time. Immediately prior to attachment, the MDI was vigorously shaken. Prior to collection of the test sample, the MDI was primed by actuating four times. Prior to each priming shot the MDI was vigorously shaken. The flow rate through the equipment was regulated to 28.3 L/min+/−0.5 L/min. The test sample deposited in the USCA was collected by rinsing with a known volume of collection solvent. The recovered samples were then analyzed for sample content using an HPLC assay with reference to a known standard. An HPLC instrument with a UV detector (220 nm at 0 minutes, 240 nm at 5 minutes) and a symmetry shield RP18, 150 mm×4.6 mm (3.5 μm) column (temperature 25° C.) was used. The mobile phase was 10 mM SDS (sodium dodecyl sulphate), 60:40 (v/v) acetetonitrile:50 mM NH4OAc (ammonium acetate), pH 5.50. The injection volume was 50 μl and the flow rate was 1.0 mL/min.

Data set [2] in a line: Next Generation Impactor (NGI) studies, aerodynamic particle size distribution emitted from MDI. The following applies: HFA-152a; for FPM (fine particle mass, particle size less than 5 micrometers, per actuation) / ISM (impactor sized mass, Cups 2-7, MOC and filter, per actuation) / MMAD (mass median aerodynamic diameter) / Throat hold up (throat assembly content divided by total ex-actuator content): Example 1 MDI: 0.1744% FF, 0.0698% vilanterol trifenatate, mean of three MDIs; for FPM (fine particle mass, particle size less than 5 micrometers, per actuation) / ISM (impactor sized mass, Cups 2-7, MOC and filter, per actuation) / MMAD (mass median aerodynamic diameter): 30 L/minute; for Throat hold up (throat assembly content divided by total ex-actuator content): Emmace anatomical throat. It counts as physicochemical. The procedure:
The aerodynamic particle size distribution emitted from each MDI was evaluated using a Next Generation Impactor Instrument (MSP Corporation, Shoreview, MN). For each test, an MDI was attached to the throat component (Emmace anatomical throat, Emmace Consulting, Lund, Sweden) of the NGI instrument and actuated 6 times into the instrument. Prior to each actuation the MDI was vigorously shaken. Immediately prior to attachment, the MDI was primed by actuating 4 times. Prior to each priming shot the MDI was vigorously shaken. The flow rate through the instrument during testing was regulated at 30 L/minute. The test sample (fluticasone furoate and vilanterol trifenatate) deposited on the valve stem, actuator, throat assembly (Emmace anatomical throat), individual uncoated collection cups 1-7, micro-orifice collector (MOC), and final filter component was collected by rinsing each individual component with a known volume of collection solvent. The recovered samples were then analyzed for sample content using an HPLC assay with reference to a known standard. An HPLC instrument with a UV detector (220 nm at 0 minutes, 240 nm at 5 minutes) and a symmetry shield RP-18, 4.6-150 mm column (25° C. column temp) was used. The mobile phase was 10 mM SDS, 60:40 (v/v) acetonitrile:50 mM NH4OAc, pH 5.5). The injection volume was 50 microliters and the flow rate was 1.0 mL/min.
Throat hold up was determined as the ratio of the sample content from the throat assembly divided by the total ex-actuator content.
Fine particle mass (FPM) was calculated using CITDAS (Copley Inhaler Testing Data Analysis Software, from Copley Scientific, Nottingham, UK) as the sum of sample content with a particle size less than 5 micrometers (um), reported as micrograms per actuation (mcg/act).
Median mass aerodynamic diameter (MMAD) was calculated using CITDAS (Copley Inhaler Testing Data Analysis Software).
Impactor sized mass (ISM) was determined as the sum of the sample content determined for Cups 2-7, the MOC and the filter, reported as micrograms per actuation (mcg/act).

The mark [3] stands for this setting: Example 2 MDI: 0.8791 wt. % fluticasone furoate, 0.1758 wt. % vilanterol trifenatate, coated 25 microliter valve.
The mark [4] stands for this setting: Example 3 MDI: 0.4396 wt. % fluticasone furoate, 0.0879 wt. % vilanterol trifenatate, 50 microliter valve.
The mark [5] stands for this setting: Example 4 MDI: 0.3489 wt. % fluticasone furoate, 0.0698 wt. % vilanterol trifenatate, 63 microliter valve.
Setting [6] is: Example 5 MDI: 0.2198 wt. % fluticasone furoate, 0.0440 wt. % vilanterol trifenatate, uncoated 100 microliter valve.
Setting [7] is: Example 6 MDI: 0.4396 wt. % fluticasone furoate, 0.1758 wt. % vilanterol trifenatate, coated 25 microliter valve.
Where [8] appears, read: Example 7 MDI: 0.2198 wt. % fluticasone furoate, 0.0879 wt. % vilanterol trifenatate, 50 microliter valve.
Setting [9] is: Example 8 MDI: 0.1744 wt. % fluticasone furoate, 0.0698 wt. % vilanterol trifenatate, 63 microliter valve.
Where [10] appears, read: Example 9 MDI: 0.1099 wt. % fluticasone furoate, 0.0440 wt. % vilanterol trifenatate, uncoated 100 microliter valve.

For the compound `C[C@@H]1C[C@H]2[C@@H]3C[C@H](F)C4=CC(=O)C=C[C@]4(C)[C@@]3(F)[C@@H](O)C[C@]2(C)[C@@]1(OC(=O)c1ccco1)C(=O)SCF` [FF, fluticasone furoate], the “Start of life dose content uniformity (delivered dose)” value in data set [1] is 90.9 mcg/actuation. In data set [2] (63 microliter valve), the “FPM (fine particle mass, particle size less than 5 micrometers, per actuation)” value is 21.6 µg. The “ISM (impactor sized mass, Cups 2-7, MOC and filter, per actuation)” value in data set [2] (63 microliter valve) was 29.7 µg. Further, in data set [2] (63 microliter valve), the “MMAD (mass median aerodynamic diameter)” value is given as 3.3 um. Moreover, the “Throat hold up (throat assembly content divided by total ex-actuator content)” value in data set [2] (63 microliter valve) is recorded as 70.8%. Further, the “calculated FPM” value is 104.9 micrograms/actuation in data set [2] (setting [3]); 69.3 micrograms/actuation in data set [2] (setting [4]); 55.9 micrograms/actuation in data set [2] (setting [5]); 45.2 micrograms/actuation in data set [2] (setting [6]); 41.0 micrograms/actuation in data set [2] (setting [7]); 26.3 micrograms/actuation in data set [2] (setting [8]). For the same compound, the “calculated FPM” value in data set [2] (setting [9]) was 23.8 micrograms/actuation; in data set [2] (setting [10]), 19.3 micrograms/actuation. In addition, the “calculated MMAD” value is given as 3.5 micrometers in data set [2] (setting [3]); 3.4 micrometers in data set [2] (setting [4]); 3.3 micrometers in data set [2] (setting [5]); 3.3 micrometers in data set [2] (setting [6]); 3.1 micrometers in data set [2] (setting [7]); 2.9 micrometers in data set [2] (setting [8]). Besides, the “calculated MMAD” value in data set [2] (setting [9]) is 3.0 micrometers; in data set [2] (setting [10]), 3.2 micrometers.
Turning to `OCc1cc([C@@H](O)CNCCCCCCOCCOCc2c(Cl)cccc2Cl)ccc1O` [V, vilanterol], in data set [1], the “Start of life dose content uniformity (delivered dose)” value was determined as 23.1 mcg/actuation. In addition, the “FPM (fine particle mass, particle size less than 5 micrometers, per actuation)” value in data set [2] (63 microliter valve) worked out at 9.2 µg. Besides, in data set [2] (63 microliter valve), the “ISM (impactor sized mass, Cups 2-7, MOC and filter, per actuation)” value is 10.1 µg. In data set [2] (63 microliter valve), the “MMAD (mass median aerodynamic diameter)” value is listed as 1.9 um. For the same compound, the “Throat hold up (throat assembly content divided by total ex-actuator content)” value in data set [2] (63 microliter valve) was 61.4%. In addition, the “calculated FPM” value in data set [2] (setting [3]) is listed as 13.6 micrograms/actuation; in data set [2] (setting [4]), 8.8 micrograms/actuation; in data set [2] (setting [5]), 6.7 micrograms/actuation; in data set [2] (setting [6]) it was 5.5 micrograms/actuation; in data set [2] (setting [7]), 11.4 micrograms/actuation; in data set [2] (setting [8]), 7.7 micrograms/actuation. In addition, the “calculated FPM” value was 5.9 micrograms/actuation in data set [2] (setting [9]) and 4.2 micrograms/actuation in data set [2] (setting [10]). Also, the “calculated MMAD” value in data set [2] (setting [3]) was 2.6 micrometers; in data set [2] (setting [4]) it was 2.7 micrometers; in data set [2] (setting [5]), 2.3 micrometers; in data set [2] (setting [6]), 2.5 micrometers; in data set [2] (setting [7]) it was 2.1 micrometers; in data set [2] (setting [8]) it was 2.2 micrometers. Further, the “calculated MMAD” value in data set [2] (setting [9]) was 2.3 micrometers; in data set [2] (setting [10]), 2.6 micrometers.
